# Publication PMC5047949, “Kinetic analysis of the translocator protein positron emission tomography ligand [^18F]GE-180 in the human brain” (European Journal of Nuclear Medicine and Molecular Imaging, 2016)
# Experiments:
# [1] = system: translocator protein (TSPO); test: Dynamic [^18F]GE-180 brain PET with arterial input; 1TC, 2TC and Logan kinetic modelling; type: in vivo, human; conditions: for Distribution volume ratio: cortical grey matter pseudoreference, median (IQR); for K1 / VT / k2 / k3 / k4: median (interquartile range)
# Protocol: PET studies were performed on a Biograph 6 (six-slice CT) scanner after administration of 182 ± 3.1 MBq via intravenous bolus injection over 10 s followed by a 10-mL saline flush. A low-dose CT scan preceded the PET acquisition to allow correction for tissue attenuation. Emission data were then acquired over 90 min in list mode and reconstructed as 24 temporal frames (6 × 15, 3 × 60, 5 × 120, 5 × 300, 5 × 600 s) using filtered back-projection (matrix size 168 × 168, zoom 2.6, 5-mm gaussian filter, pixel size 1.56 × 1.56, slice thickness 3 mm) with and without attenuation correction. Standard corrections for scatter, decay and random counts were applied.
# We used the PET data analysis and kinetic modelling toolkit, MIAKAT™ (www.miakat.org), which incorporates software from SPM5 (Wellcome Trust Centre for Neuroimaging) and FSL (FMRIB, University of Oxford). The brain was initially extracted from the T1-weighted MR images. The CIC neuroanatomical atlas was nonlinearly registered to the individual’s extracted brain in order to generate a personalized set of anatomically parcellated regions. Frame-by-frame motion correction of the dynamic (without attenuation correction) PET data was performed using mutual information coregistration of the individual frames to a reference frame. An average motion-corrected PET image was generated and used for coregistration with the T1-weighted MR image. Finally, regional tissue time–activity curves (TACs) were generated for each region of interest (ROI) defined from the CIC atlas that had been transformed into each individual’s image space.
# Datasets were analysed with a one-tissue compartment (1TC) model and a two-tissue compartment (2TC) model and the Logan graphical method, using the metabolite-corrected plasma input function as previously described with a fixed 5 % blood volume correction. The primary outcome measures were the radioligand delivery rate constant (K1; mL cm^−3 min^−1), total distribution volume (VT: mL cm^−3), and standardized uptake values (SUV). The SUV ratio (SUVR) and distribution volume ratio (DVR) were estimated using the cortical grey matter as a pseudo reference region.
# To investigate the stability of VT over different scan durations, a time stability analysis was performed by analysing data for total time windows that ranged between 40 and 90 min in 10-min increments.
# [2] = set-up: method as in PMID 26072270; conditions: 60 min; earlier preclinical work; cited from earlier work
# [3] = Arterial whole-blood and plasma activity, and parent fraction by HPLC; type: in vivo, human
# Protocol: Arterial blood activity was measured every second for the first 15 min of the 90-min scan using an automated blood sampling system (ABSS Allog, Mariefred, Sweden) connected to the subject via a 1.5 m × 1.0 mm diameter polytetrafluoroethylene line (blood withdrawal rate 2.5 ml/min). In addition, blood samples (10 mL) were collected manually from the radial artery at 0, 5, 10, 15, 30, 50, 70 and 90 min to assay whole-blood and plasma activity. Plasma was obtained by centrifugation for 3 min at 1,800 g. Activity in whole blood and plasma was measured in a CAPRAC-t well counter over 10 – 60 s. The first 15 min of continuous whole-blood activity was combined with the activity from discrete samples to generate the whole-blood activity curve for use in data modelling. The continuous plasma-to-blood ratio was estimated using a constant model and a total plasma activity curve was obtained by correcting the whole-blood curve for this partition between plasma and blood.
# The parent fraction of [^18F]GE-180 was measured by high-performance liquid chromatography (Agilent 1,100 and 1,260 series) of discrete plasma samples (3.5 mL). The parent fraction was fitted to a single exponential plus a constant model. The total plasma activity was multiplied by this parent fraction and then smoothed post peak by fitting to a triexponential function to generate an arterial parent plasma input function. A delay correction of up to +30 s was applied to the input function prior to fitting the kinetic modelling. This was performed to account for delay in the 1.5-m tube (28.3 s) and delay between the radial artery and the brain.
# [4] = pH 7.4; preclinical work; cited from earlier work
# [5] = Safety and tolerability after radioligand administration; type: in vivo, human
# Description: With regard to correlations between age and the principal outcome measure, there were no significant correlations between age and VT in either HABs and MABs in any of the ROIs studied (Spearman’s rho = −0.3 – 0.7 p = 0.188 – 0.873 in HABs; Spearman’s rho = 0.1 – 0.8, p = 0.104 – 0.94 in MABs). There were also no significant relationships between age and outcome measures when added as a covariate in the repeated measures ANOVA. Demographic data are provided in Supplementary Table 1.
# [6] = humans; in vitro work, not measured in this study; cited from earlier work
# [7] = 2TC-fix model, across all regions and subjects
# [8] = Logan graphical method, Cerebellum
# [9] = Logan graphical method, Frontal lobe
# [10] = Logan graphical method, Occipital lobe
# [11] = Logan graphical method, Parietal lobe
# [12] = Logan graphical method, Striatum
# [13] = Logan graphical method, Temporal lobe
# [14] = Logan graphical method, Thalamus
structure (smiles),measurement,setting,value
CCN(CC)C(=O)[C@H]1CCCc2c1c1c(OC)cccc1n2CC[18F] [[^18F]GE-180],Distribution volume ratio,"[1]; 1TC model, Cerebellum",0.968 (0.91 – 1)
same,K1,"[1]; 1TC model, Cerebellum",0.00656 (0.0054 – 0.0076) mL/min
same,VT,"[1]; 1TC model, Cerebellum",0.178 (0.16 – 0.22) mL/cm^3
same,k2,"[1]; 1TC model, Cerebellum",0.0339 (0.034 – 0.034) /min
same,Distribution volume ratio,"[1]; 1TC model, Frontal lobe",0.939 (0.94 – 0.95)
same,K1,"[1]; 1TC model, Frontal lobe",0.00472 (0.0041 – 0.006) mL/min
same,VT,"[1]; 1TC model, Frontal lobe",0.171 (0.15 – 0.22) mL/cm^3
same,k2,"[1]; 1TC model, Frontal lobe",0.0271 (0.023 – 0.028) /min
same,Distribution volume ratio,"[1]; 1TC model, Occipital lobe",1.12 (1.1 – 1.2)
same,K1,"[1]; 1TC model, Occipital lobe",0.00621 (0.0057 – 0.0074) mL/min
same,VT,"[1]; 1TC model, Occipital lobe",0.214 (0.19 – 0.25) mL/cm^3
same,k2,"[1]; 1TC model, Occipital lobe",0.03 (0.025 – 0.032) /min
same,Distribution volume ratio,"[1]; 1TC model, Parietal lobe",0.969 (0.96 – 1)
same,K1,"[1]; 1TC model, Parietal lobe",0.00513 (0.004 – 0.0061) mL/min
same,VT,"[1]; 1TC model, Parietal lobe",0.19 (0.16 – 0.22) mL/cm^3
same,k2,"[1]; 1TC model, Parietal lobe",0.027 (0.024 – 0.028) /min
same,Distribution volume ratio,"[1]; 1TC model, Striatum",0.826 (0.78 – 0.89)
same,K1,"[1]; 1TC model, Striatum",0.00358 (0.003 – 0.0046) mL/min
same,VT,"[1]; 1TC model, Striatum",0.155 (0.14 – 0.2) mL/cm^3
same,k2,"[1]; 1TC model, Striatum",0.0241 (0.021 – 0.025) /min
same,K1,"[1]; 1TC model, Temporal lobe",0.00514 (0.0048 – 0.006) mL/min
same,VT,"[1]; 1TC model, Temporal lobe",0.182 (0.17 – 0.24) mL/cm^3
same,k2,"[1]; 1TC model, Temporal lobe",0.0266 (0.025 – 0.028) /min
same,Distribution volume ratio,"[1]; 1TC model, Thalamus",1.03 (0.96 – 1.1)
same,K1,"[1]; 1TC model, Thalamus",0.00555 (0.0046 – 0.0058) mL/min
same,VT,"[1]; 1TC model, Thalamus",0.182 (0.17 – 0.24) mL/cm^3
same,k2,"[1]; 1TC model, Thalamus",0.0261 (0.024 – 0.028) /min
same,Distribution volume ratio,"[1]; 2TC model, Cerebellum",0.916 (0.69 – 0.98)
same,K1,"[1]; 2TC model, Cerebellum",0.0224 (0.016 – 1.3) mL/min
same,VT,"[1]; 2TC model, Cerebellum",0.281 (0.25 – 0.33) mL/cm^3
same,k2,"[1]; 2TC model, Cerebellum",0.319 (0.23 – 78) /min
same,k3,"[1]; 2TC model, Cerebellum",0.0331 (0.029 – 0.091) /min
same,k4,"[1]; 2TC model, Cerebellum",0.0113 (0.0084 – 0.018) /min
same,Distribution volume ratio,"[1]; 2TC model, Frontal lobe",0.984 (0.96 – 1.2)
same,K1,"[1]; 2TC model, Frontal lobe",0.0102 (0.0089 – 0.013) mL/min
same,VT,"[1]; 2TC model, Frontal lobe",0.346 (0.26 – 0.5) mL/cm^3
same,k2,"[1]; 2TC model, Frontal lobe",0.195 (0.15 – 1.6) /min
same,k3,"[1]; 2TC model, Frontal lobe",0.0301 (0.024 – 0.15) /min
same,k4,"[1]; 2TC model, Frontal lobe",0.00653 (0.004 – 0.017) /min
same,Distribution volume ratio,"[1]; 2TC model, Occipital lobe",1.07 (0.97 – 1.1)
same,K1,"[1]; 2TC model, Occipital lobe",0.0238 (0.019 – 0.031) mL/min
same,VT,"[1]; 2TC model, Occipital lobe",0.35 (0.3 – 0.52) mL/cm^3
same,k2,"[1]; 2TC model, Occipital lobe",0.385 (0.2 – 0.62) /min
same,k3,"[1]; 2TC model, Occipital lobe",0.0395 (0.036 – 0.054) /min
same,k4,"[1]; 2TC model, Occipital lobe",0.0101 (0.0062 – 0.014) /min
same,Distribution volume ratio,"[1]; 2TC model, Parietal lobe",1.01 (0.98 – 1.1)
same,K1,"[1]; 2TC model, Parietal lobe",0.0116 (0.011 – 0.014) mL/min
same,VT,"[1]; 2TC model, Parietal lobe",0.33 (0.31 – 0.42) mL/cm^3
same,k2,"[1]; 2TC model, Parietal lobe",0.192 (0.15 – 0.25) /min
same,k3,"[1]; 2TC model, Parietal lobe",0.0334 (0.025 – 0.039) /min
same,k4,"[1]; 2TC model, Parietal lobe",0.00873 (0.0045 – 0.014) /min
same,Distribution volume ratio,"[1]; 2TC model, Striatum",0.451 (0.41 – 0.71)
same,K1,"[1]; 2TC model, Striatum",0.00413 (0.0033 – 0.0088) mL/min
same,VT,"[1]; 2TC model, Striatum",0.155 (0.14 – 0.22) mL/cm^3
same,k2,"[1]; 2TC model, Striatum",1.14 (0.66 – 1.7) /min
same,k3,"[1]; 2TC model, Striatum",4.89 (0.62 – 9.1) /min
same,k4,"[1]; 2TC model, Striatum",0.14 (0.027 – 0.21) /min
same,Distribution volume ratio,"[1]; 2TC model, Temporal lobe",0.958 (0.93 – 1)
same,K1,"[1]; 2TC model, Temporal lobe",0.0143 (0.012 – 0.032) mL/min
same,VT,"[1]; 2TC model, Temporal lobe",0.306 (0.27 – 0.42) mL/cm^3
same,k2,"[1]; 2TC model, Temporal lobe",0.217 (0.16 – 1.3) /min
same,k3,"[1]; 2TC model, Temporal lobe",0.0348 (0.03 – 0.15) /min
same,k4,"[1]; 2TC model, Temporal lobe",0.00927 (0.0063 – 0.016) /min
same,Distribution volume ratio,"[1]; 2TC model, Thalamus",0.922 (0.81 – 1.1)
same,K1,"[1]; 2TC model, Thalamus",0.0118 (0.011 – 0.014) mL/min
same,VT,"[1]; 2TC model, Thalamus",0.376 (0.28 – 0.41) mL/cm^3
same,k2,"[1]; 2TC model, Thalamus",0.16 (0.14 – 0.2) /min
same,k3,"[1]; 2TC model, Thalamus",0.0315 (0.026 – 0.042) /min
same,k4,"[1]; 2TC model, Thalamus",0.00881 (0.0062 – 0.012) /min
same,average regional delivery rate constant (K1),"[1]; 2TC model, healthy subjects",0.01 mL cm^−3 min^−1
same,"K1, average",[1]; [7],0.013 mL cm^−3 min^−1
same,"VT, average",[1]; [7],0.311 mL cm^−3
same,"k2, average",[1]; [7],0.229 min⁻¹
same,"k3, average",[1]; [7],0.035 min⁻¹
same,"k4, average",[1]; [7],0.010 min⁻¹
same,Distribution volume ratio,[1]; [8],0.99 (0.91 – 1)
same,VT,[1]; [8],0.29 (0.24 – 0.3) mL/cm^3
same,Distribution volume ratio,[1]; [9],0.931 (0.92 – 0.97)
same,VT,[1]; [9],0.265 (0.23 – 0.33) mL/cm^3
same,Distribution volume ratio,[1]; [10],1.14 (1.1 – 1.2)
same,VT,[1]; [10],0.34 (0.3 – 0.39) mL/cm^3
same,Distribution volume ratio,[1]; [11],0.996 (0.93 – 1)
same,VT,[1]; [11],0.284 (0.23 – 0.35) mL/cm^3
same,Distribution volume ratio,[1]; [12],0.844 (0.7 – 0.92)
same,VT,[1]; [12],0.25 (0.21 – 0.29) mL/cm^3
same,Distribution volume ratio,[1]; [13],1.01 (0.95 – 1.1)
same,VT,[1]; [13],0.312 (0.24 – 0.36) mL/cm^3
same,Distribution volume ratio,[1]; [14],0.991 (0.98 – 1)
same,VT,[1]; [14],0.3 (0.26 – 0.31) mL/cm^3
same,time of peak concentration in the brain,[1]; all subjects,around 1 min
same,extraction across the blood–brain barrier (first-pass extraction),"[1]; healthy subjects, from K1 of the 2TC model",approximately 1%
same,estimated median VT,"[1]; striatum (lowest ROI), 2TC model",0.16 mL cm^−3
same,estimated median VT,"[1]; thalamus (highest ROI), 2TC model",0.38 mL cm^−3
same,share of activity in a typical ROI that came from blood,[1]; tissue TAC minus whole-blood radioactivity curve,approximately 20%
same,parent in the brain,[2],94%
same,intact parent tracer remaining,"[3]; 90 min, plasma",70%
same,time of peak concentration in plasma,[3]; arterial plasma after i.v. bolus,about 45 s
same,plasma-to-blood ratio,[3]; constant across subjects,about 1.69
same,polar radioactive metabolites (three) in plasma,[3]; over the 90 min scanning window,< 10 % of parent compound
same,logD,[4],2.95
same,safety of tracer administration,[5]; healthy subjects,safe
same,pharmacological effects after injection,"[5]; patient reports, blood pressure, pulse, respiration rate, oxygen saturation",no pharmacological effects
same,plasma free fraction,[6],approximately 3%
